According to patent US20250186321A1, “FORMULATION USING AMINO ACID AND CARBOXYLIC ACID, ORGANIC SALT, AND COMPOSITION COMPRISING SAME AND USE THEREOF” (MIYOSHI OIL & FAT CO., LTD., priority 2021, published 2025):

Experiments:
[1] = Appearance of formulation (state at 25° C.); assay type: physicochemical; conditions: Tables 2A/2B; formulation at the compounding molar ratio listed
Escherichia coli [2] = assay: Antibacterial property evaluation 1 (minimum inhibitory concentration, broth microdilution); assay type: cell-based; conditions: broth microdilution method
Text: (§1) The following reagents, etc, were used for minimum inhibitory concentration (MIC) measurement and halo test. • Staphylococcus aureus: strain of NBRC15035, NITE • Escherichia coli: strain of […], NITE • Potassium lactate manufactured by Fujifilm Wako Pure Chemical • Medium of Muller-Hinton broth: Becton, Dickinson and Company • Media for revival of L-dried specimens “DAIGO” manufactured by Fujifilm Wako Pure Chemical • Calcium chloride manufactured by Fuji Film Wako Pure Chemical • Magnesium chloride manufactured by Fuji Film Wako Pure Chemical • Skim milk: Megmilk Snow Brand • Meat extract: from Solabia Biokar Diagnostics • Peptone: from Solabia Biokar Diagnostics • Sodium chloride manufactured by Fuji Film Wako Pure Chemical • Agar manufactured by Fuji Film Wako Pure Chemical
(§2) Working examples 556 to 583 and the comparative example 19 shown in Tables 8A and 8B were subjected to the minimum inhibitory concentration (MIC) test against Escherichia coli and Staphylococcus aureus by the broth microdilution method (as described in the standard method of the Japanese Society of Chemotherapy) to study antibacterial activities of the formulations (organic salt). Formulation (organic salt) concentrations at 250, 200, 150, 100, 50, 25, 12.5, 8, 4, 2, 0.8, 0.4, 0.2, 0.1, 0.05 mg/mL were evaluated, and the MICs are shown in Tables 8A and 8B.

Staphylococcus aureus [3] = assay: as above; assay type: cell-based; conditions: broth microdilution method
Text: as §1, §2

[4] = Appearance of formulation (state at 25° C.); assay type: physicochemical; conditions: 25° C.
Method: Formulations 1 to 427 shown in Tables 1A to 1D were prepared by the above-described method using the components (A) and (B) at the compounding molar ratios shown in the tables, and their states at 25° C. were observed.

[5] = Water retention evaluation (moisture reduction rate); assay type: physicochemical; conditions: for Moisture eduction rate / Moisture content before test (A): 80 wt. % aqueous solution; for Moisture eduction rate: 24 hours at 35° C. and 25% RH, calculated from A and B; for Moisture content before test (A): Karl Fischer; for Presence or absence of hydrates: left until the moisture content remained unchanged, based on final moisture content
Method: 80 wt. % aqueous solutions of the formulations (organic salts) of the working examples 428 to 459 and comparative examples 1 to 5 in Tables 2A and 2B were prepared, and the water contents were measured using a Karl Fischer moisture meter (CA-200 manufactured by Mitsubishi Chemical Analytech Co., Ltd.). It was confirmed that the water contents of them were 20.0 wt. % (moisture content before test: A). Each of the 1.0 g samples was added to a screw tube, and left uncovered to stand still for 24 hours in a constant temperature and humidity bath (KCL-2000W manufactured by Tokyo Rikakikai Co., Ltd.) which was set at 35° C. and 25% RH. Moisture contents after being left for 24 hours were measured again (moisture content after test: B) to evaluate their water retention property by using the following formula for calculating the moisture reduction rates. After that, it was left to stand still until the moisture content remained unchanged, and determinations of the hydrate and the number of hydrated water were made based on the final moisture contents. • Moisture content before test: A (%) • Moisture content after test: B (%)

[6] = Solubility evaluation of polyoxyethylene alkyl ether (AE) in the formulations; assay type: physicochemical; conditions: polyoxyethylene alkyl ether (Peletex 2465); left at 25° C. for 24 hours, visual
Method: Into 20 wt. % aqueous solutions of the formulations (organic salts) shown in Table 10 are dissolved methylparaben (manufactured by Tokyo Kasei, hereinafter, paraben) at 1.0 wt. %, 0.5 wt. % and 0.25 wt. % at 80° C. to prepare the respective antibacterial compositions.
Polyoxyethylene alkyl ether (hereinafter referred to as AE) which is an antiviral substance recognized to be effective against viruses was also subjected to the similar procedure to evaluate the solubility based on the above-mentioned criteria. As the AE, Peletex 2465, manufactured by Miyoshi Oil & Fats Co., Ltd., was used. (Table 10)

[7] = Evaluation on permeability to skin (tape stripping, ascorbyl glucoside); assay type: in vivo; conditions: scale 1(Slow) to 5(Fast), 10 wt. % aqueous solution with 5 wt. % ascorbyl glucoside, layers 1 to 8, 5 test subjects
Method: As for the comparative example 33, ascorbyl glucoside was added so as to be 5% by mass with respect to water to prepare a sample solution. Then, a cotton material impregnated with the prepared 750 μL sample solution was applied to a 1 cm×3 cm area of the inner side of an upper arm for each of the 5 test subjects who have been kept in quiet for 30 minutes under constant temperature and humidity, and allowed to stand still for 5 minutes. After removing the cotton material, a new cotton material was used to remove the sample having been left on the skin surface and then allowed to stand still for 30 minutes. The horns in the first to eighth layers were then harvest from the application site using a Cellotape® (manufactured by Nichiban Co., Ltd.), and all of the layers obtained from the tape were used as samples for assay.
The obtained sample for assay was then extracted with 2 ml of ion-exchange water over the course of 10 min. […] The measured values of the samples for assay that were harvested from the 5 test subjects were averaged, and the averaged value was regarded as the permeation amount (μg/cm^2) to make a comparison of the total permeation amounts for the first to eighth layers. […]

Escherichia coli [8] = assay: Antibacterial evaluation of antibacterial composition (with paraben); assay type: cell-based; conditions: 1.0 mg/mL paraben and/or 1.0 mg/mL formulation
Method: as §2
(§3) Antibacterial compositions prepared to have the composition having the components (A) and (B) and paraben in an equal amount (working examples 597 to 612, wherein 1.0 mg/mL of paraben and 1.0 mg/mL of the respective working examples 597 to 612 are combined to be 2.0 mg/mL of the composition); the comparative example 27 containing only of water and paraben (at the concentration of 1.0 mg/mL of paraben); and reference example 1 containing L-lysine and citric acid (at the concentration of 1.0 mg/mL) were each subjected to a test performed by a method similar to and as explained in the section of 9-1 based on the presence or absence of the bacterial growth to evaluate the presence or absence of the antibacterial activity.

Staphylococcus aureus [9] = assay: as above; assay type: cell-based; conditions: 1.0 mg/mL paraben and/or 1.0 mg/mL formulation
Method: as §2, §3

[10] = Adhesiveness evaluation (adhesion rate to filter paper); assay type: physicochemical; conditions: vacuum dehydration for 8 hours at 60° C.
Method: The adhesion rates of the samples were each calculated from the weight change of the filter paper (Table 9). As a blank test, 100 μL of water was dropped on the filter paper, and this filter paper was dried in a vacuum. The change in weight was measured and used as the correction value.

Staphylococcus aureus [11] = assay: Antibacterial property evaluation 2 (halo test 1); assay type: cell-based; conditions: Staphylococcus aureus, JISL1902
Text: The following reagents, etc, were used for minimum inhibitory concentration (MIC) measurement and halo test. • Staphylococcus aureus: strain of NBRC15035, NITE • Escherichia coli: strain of […], NITE • Potassium lactate manufactured by Fujifilm Wako Pure Chemical • Medium of Muller-Hinton broth: Becton, Dickinson and Company • Media for revival of L-dried specimens “DAIGO” manufactured by Fujifilm Wako Pure Chemical • Calcium chloride manufactured by Fuji Film Wako Pure Chemical • Magnesium chloride manufactured by Fuji Film Wako Pure Chemical • […] Snow Brand • Meat extract: from Solabia Biokar Diagnostics • Peptone: from Solabia Biokar Diagnostics • Sodium chloride manufactured by Fuji Film Wako Pure Chemical • Agar manufactured by Fuji Film Wako Pure Chemical […]

SMILES	state at 25° C. [1]	MIC Escherichia coli (Escherichia coli [2]) [mg/mL]	MIC Staphylococcus aureus (Staphylococcus aureus [3]) [mg/mL]	state at 25° C. [4]	Moisture eduction rate [5] [%]	Moisture content before test (A) [5] [%]	Presence or absence of hydrates [5]	Relative infiltration rates of active component (ascorbyl glucoside) into skin [7]	adhesion to the filter paper [10]	Solubility into 20 wt. % aqueous solution of the formulations: AE [6]	presence or absence of the antibacterial activity (Escherichia coli [8])	presence or absence of the antibacterial activity (Staphylococcus aureus [9])	presence or absence of halos (halo test 1) (Staphylococcus aureus [11])
CC(O)C(=O)[O-].[K+] (stereo not shown) [Formulation 428]	Solid	100	150	Solid	87.5	20.0	Absent	–	–	–	–	–	–
CCCC[N+](CCCC)(CCCC)CCCC.[Br-] [Formulation 430]	Solid	–	–	Solid	70.0	20.0	Absent	–	–	⊚ (1.0 wt. % or more; no crystal precipitation was observed)	–	–	–
COC(=O)c1ccc(O)cc1 [compound 27, methylparaben]	–	–	–	–	–	–	–	–	–	–	does not exhibit any antibacterial activity	does not exhibit any antibacterial activity	–

Further lines, with some results ahead:

state at 25° C. [1]	MIC Escherichia coli (Escherichia coli [2]) [mg/mL]	MIC Staphylococcus aureus (Staphylococcus aureus [3]) [mg/mL]	state at 25° C. [4]	Moisture eduction rate [5] [%]	Moisture content before test (A) [5] [%]	Presence or absence of hydrates [5]	Relative infiltration rates of active component (ascorbyl glucoside) into skin [7]	adhesion to the filter paper [10]	SMILES	Solubility into 20 wt. % aqueous solution of the formulations: AE [6]	presence or absence of the antibacterial activity (Escherichia coli [8])	presence or absence of the antibacterial activity (Staphylococcus aureus [9])	presence or absence of halos (halo test 1) (Staphylococcus aureus [11])
Liquid	–	–	Solid	71.5	20.0	Absent	–	–	CCCCn1cc[n+](C)c1.F[B-](F)(F)F [Formulation 431]	⊚ (1.0 wt. % or more; no crystal precipitation was observed)	–	–	–
Liquid	–	–	–	89.7	20.0	Absent	5	–	OCC(O)CO [Formulation 432]	–	–	–	–
–	–	–	–	–	–	–	–	did not adhere to the filter paper	CCO [ethanol, reference compound]	–	–	–	no halo was observed
